{"source": "PubChem BioAssay AID330", "about": "(DTP/NCI, 2004)", "test_system": "P388 leukemia ip, CD2F1 mice, survival T/C", "assay": "NCI In Vivo Anticancer Drug Screen. Data for tumor model P388 Leukemia (intraperitoneal) in CD2F1 (CDF1) mice", "settings": "endpoint: median survival time, higher = longer survival", "in_short": "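Mice carrying the transplanted tumor received test compound or vehicle. Survival was recorded in each group, and the value is the treated-group measurement divided by that of the vehicle-treated control group.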", "key": {"[1]": {"settings": "dose: 50.0 mg/kg/injection, schedule: Q01DX009 (ip), vehicle: saline"}, "[2]": {"settings": "dose: 100.0 mg/kg/injection, schedule: Q01DX009 (ip), vehicle: saline"}, "[3]": {"settings": "dose: 50.0 mg/kg/injection, schedule: Q01DX009 (ip), vehicle: saline with Tween-80"}, "[4]": {"settings": "dose: 100.0 mg/kg/injection, schedule: Q01DX009 (ip), vehicle: saline with Tween-80"}}, "note": "Where “and” joins values, the source holds several entries; their conditions need not be identical. Equal values may be shown once. Inconclusive results and toxic doses are left out.", "data": [{"smiles": "CCOC(=O)C(=O)Nc1[nH]c(C)c(C)c1C#N", "values": [{"measurement": "T/C", "setting": "dose: 50.0 mg/kg/injection, schedule: Q01DX009 (ip), vehicle: saline + alcohol", "result": "91 % of control"}, {"measurement": "T/C", "setting": "dose: 100.0 mg/kg/injection, schedule: Q01DX009 (ip), vehicle: saline + alcohol", "result": "96 % of control"}, {"measurement": "T/C", "setting": "dose: 200.0 mg/kg/injection, schedule: Q01DX009 (ip), vehicle: saline + alcohol", "result": "89 % of control"}]}, {"smiles": "CC1CCC2(CC1)CCN(CCCN(C)C)CC2", "values": [{"measurement": "T/C", "setting": "[1]", "result": "99 % of control"}, {"measurement": "T/C", "setting": "[2]", "result": "103 % of control"}]}, {"smiles": "CCOC(=O)c1ccc(NC(=O)Oc2cc(C)ccc2C)cc1", "values": [{"measurement": "T/C", "setting": "dose: 3.75 mg/kg/injection, schedule: Q01DX005 (ip), vehicle: saline with Tween-80", "result": "93 % of control"}, {"measurement": "T/C", "setting": "dose: 7.5 mg/kg/injection, schedule: Q01DX005 (ip), vehicle: saline with Tween-80", "result": "90 % of control"}, {"measurement": "T/C", "setting": "dose: 15.0 mg/kg/injection, schedule: Q01DX005 (ip), vehicle: saline with Tween-80", "result": "90 % of control and 94 % of control"}, {"measurement": "T/C", "setting": "dose: 60.0 mg/kg/injection, schedule: Q01DX005 (ip), vehicle: saline with Tween-80", "result": "94 % of control"}]}, {"smiles": "CC1(C)CC(NC2CCCCC2)=CC(=NC2CCCCC2)N1", "values": [{"measurement": "T/C", "setting": "dose: 6.25 mg/kg/injection, schedule: Q01DX005 (ip), vehicle: Klucel (hydroxypropylcellulose) (HPC)", "result": "100 % of control"}, {"measurement": "T/C", "setting": "dose: 12.5 mg/kg/injection, schedule: Q01DX005 (ip), vehicle: Klucel (hydroxypropylcellulose) (HPC)", "result": "105 % of control"}, {"measurement": "T/C", "setting": "dose: 25.0 mg/kg/injection, schedule: Q01DX005 (ip), vehicle: Klucel (hydroxypropylcellulose) (HPC)", "result": "99 % of control and 101 % of control"}, {"measurement": "T/C", "setting": "dose: 50.0 mg/kg/injection, schedule: Q01DX005 (ip), vehicle: Klucel (hydroxypropylcellulose) (HPC)", "result": "100 % of control"}]}, {"smiles": "COc1cccc(/C=C/C(=O)C(CN(C)C)CN(C)C)c1", "values": [{"measurement": "T/C", "setting": "dose: 6.25 mg/kg/injection, schedule: Q01DX005 (ip), vehicle: saline", "result": "100 % of control"}, {"measurement": "T/C", "setting": "dose: 12.5 mg/kg/injection, schedule: Q01DX005 (ip), vehicle: saline", "result": "106 % of control"}]}, {"smiles": "Cn1cnc2n[nH]nc2c1=O", "values": [{"measurement": "T/C", "setting": "dose: 50.0 mg/kg/injection, schedule: Q01DX009 (ip), vehicle: Klucel (hydroxypropylcellulose) (HPC)", "result": "105 % of control"}, {"measurement": "T/C", "setting": "dose: 100.0 mg/kg/injection, schedule: Q01DX009 (ip), vehicle: Klucel (hydroxypropylcellulose) (HPC)", "result": "95 % of control"}, {"measurement": "T/C", "setting": "dose: 200.0 mg/kg/injection, schedule: Q01DX009 (ip), vehicle: Klucel (hydroxypropylcellulose) (HPC)", "result": "100 % of control"}]}, {"smiles": "CCn1c2ccccc2c2cc(N=Nc3cc(N)ccc3N(C)C)ccc21", "values": [{"measurement": "T/C", "setting": "dose: 50.0 mg/kg/injection, schedule: Q01DX005 (ip), vehicle: saline with Tween-80", "result": "87 % of control"}, {"measurement": "T/C", "setting": "dose: 100.0 mg/kg/injection, schedule: Q01DX005 (ip), vehicle: saline with Tween-80", "result": "87 % of control"}, {"measurement": "T/C", "setting": "dose: 200.0 mg/kg/injection, schedule: Q01DX005 (ip), vehicle: saline with Tween-80", "result": "87 % of control"}]}, {"smiles": "O=C(NC(=O)C(F)(F)F)Nc1ccc(Cl)cc1", "values": [{"measurement": "T/C", "setting": "[3]", "result": "99 % of control"}, {"measurement": "T/C", "setting": "[4]", "result": "105 % of control"}]}, {"smiles": "CCCC(=O)Nc1ccn(C2OC(CO)C(O)C2O)c(=O)n1", "note": "(stereo unspecified)", "values": [{"measurement": "T/C", "setting": "dose: 25.0 mg/kg/injection, schedule: Q01DX009 (ip), vehicle: saline", "result": "99 % of control"}, {"measurement": "T/C", "setting": "[1]", "result": "96 % of control"}, {"measurement": "T/C", "setting": "[2]", "result": "94 % of control"}, {"measurement": "T/C", "setting": "dose: 200.0 mg/kg/injection, schedule: Q01DX009 (ip), vehicle: saline", "result": "96 % of control"}]}, {"smiles": "CN(C)CC1=c2ccccc2=N/C1=C\\c1ccc(N(C)C)cc1", "values": [{"measurement": "T/C", "setting": "dose: 100.0 mg/kg/injection, schedule: Q01DX001 (ip), vehicle: saline with Tween-80", "result": "89 % of control"}, {"measurement": "T/C", "setting": "dose: 200.0 mg/kg/injection, schedule: Q01DX001 (ip), vehicle: saline with Tween-80", "result": "88 % of control"}, {"measurement": "T/C", "setting": "dose: 400.0 mg/kg/injection, schedule: Q01DX001 (ip), vehicle: saline with Tween-80", "result": "92 % of control"}]}, {"smiles": "O=S(=O)(Cl)C(F)(F)C(F)(F)C(F)(F)C(F)(F)C(F)(F)C(F)(F)F", "values": [{"measurement": "T/C", "setting": "dose: 12.5 mg/kg/injection, schedule: Q01DX009 (ip), vehicle: saline with Tween-80", "result": "100 % of control"}, {"measurement": "T/C", "setting": "dose: 25.0 mg/kg/injection, schedule: Q01DX009 (ip), vehicle: saline with Tween-80", "result": "104 % of control"}, {"measurement": "T/C", "setting": "[3]", "result": "100 % of control and 93 % of control"}, {"measurement": "T/C", "setting": "[4]", "result": "112 % of control"}]}, {"smiles": "COC(=O)C1=NC(=O)C(C#N)=C(C(=O)OC)C1(C(=O)c1ccc(OC)cc1)c1ccc(OC)cc1", "note": "(stereo unspecified)", "values": [{"measurement": "T/C", "setting": "dose: 60.0 mg/kg/injection, schedule: Q01DX005 (ip), vehicle: Klucel (hydroxypropylcellulose) (HPC)", "result": "95 % of control"}, {"measurement": "T/C", "setting": "dose: 120.0 mg/kg/injection, schedule: Q01DX005 (ip), vehicle: Klucel (hydroxypropylcellulose) (HPC)", "result": "91 % of control"}]}, {"smiles": "C1CN2CCCN3CCCN(C1)P23", "values": [{"measurement": "T/C", "setting": "dose: 100.0 mg/kg/injection, schedule: Q04DX002 (ip), vehicle: saline", "result": "115 % of control"}, {"measurement": "T/C", "setting": "dose: 200.0 mg/kg/injection, schedule: Q04DX002 (ip), vehicle: saline", "result": "98 % of control"}]}, {"smiles": "CC12CC1CCCC2OC(=O)c1cc([N+](=O)[O-])cc([N+](=O)[O-])c1", "note": "(stereo unspecified)", "values": [{"measurement": "T/C", "setting": "dose: 100.0 mg/kg/injection, schedule: Q04DX003 (ip), vehicle: saline with Tween-80", "result": "100 % of control"}, {"measurement": "T/C", "setting": "dose: 200.0 mg/kg/injection, schedule: Q04DX003 (ip), vehicle: saline with Tween-80", "result": "95 % of control"}, {"measurement": "T/C", "setting": "dose: 400.0 mg/kg/injection, schedule: Q04DX003 (ip), vehicle: saline with Tween-80", "result": "98 % of control"}]}]}
